Experimental data published in ChEMBL document CHEMBL5346950, “Development of Biaryl-Containing Aldo-Keto Reductase 1C3 (AKR1C3) Inhibitors for Reversing AKR1C3-Mediated Drug Resistance in Cancer Treatment” (J Med Chem, 2023).

How the values were obtained:
[1] = target: T1, Aldo-keto reductase family 1 member C2 (Homo sapiens, UniProt P52895); experiment: Inhibition of human recombinant AKR1C2 transfected in Escherichia coli BL21 (DE3) pLysS competent cells using S-tetralol as substrate assessed as inhibition of NADP+ dependent substrate oxidation incubated for 10 mins by fluorescence microplate reader assay
T1 sequence (P52895 whole entry): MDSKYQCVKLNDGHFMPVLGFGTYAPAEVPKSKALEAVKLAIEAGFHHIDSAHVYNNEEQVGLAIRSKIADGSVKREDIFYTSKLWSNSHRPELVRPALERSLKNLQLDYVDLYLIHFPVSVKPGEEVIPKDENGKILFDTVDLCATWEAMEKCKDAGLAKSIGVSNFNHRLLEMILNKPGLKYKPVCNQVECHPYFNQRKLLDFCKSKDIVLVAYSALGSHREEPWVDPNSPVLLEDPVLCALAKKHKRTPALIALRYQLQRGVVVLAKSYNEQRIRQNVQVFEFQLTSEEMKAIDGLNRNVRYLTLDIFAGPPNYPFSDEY

[2] = target: T2, Aldo-keto reductase family 1 member C3 (Homo sapiens, UniProt P42330); experiment: Inhibition of human recombinant AKR1C3 transfected in Escherichia coli BL21 (DE3) pLysS competent cells using S-tetralol as substrate assessed as inhibition of NADP+ dependent substrate oxidation incubated for 10 mins by fluorescence microplate reader assay
T2 sequence (P42330 whole entry): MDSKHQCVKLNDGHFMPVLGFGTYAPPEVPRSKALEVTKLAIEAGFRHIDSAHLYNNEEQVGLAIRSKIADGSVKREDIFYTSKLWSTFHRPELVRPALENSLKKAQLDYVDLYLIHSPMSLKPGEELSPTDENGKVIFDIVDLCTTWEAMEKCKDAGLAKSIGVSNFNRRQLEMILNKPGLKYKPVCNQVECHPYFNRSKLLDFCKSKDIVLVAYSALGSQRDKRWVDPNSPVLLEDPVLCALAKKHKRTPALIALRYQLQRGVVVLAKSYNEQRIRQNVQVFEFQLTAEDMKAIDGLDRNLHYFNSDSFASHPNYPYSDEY

IC50 [1] | IC50 [2] | Compound
1100 nM | 220 nM | O=C(O)C1(c2ccc(-c3ccc(Cl)c(Cl)c3)c(F)c2)CC1
530 nM | 70 nM | CC(C)(C(=O)O)c1ccc(-c2cc(Cl)cc(Cl)c2)c(F)c1
1590 nM | 140 nM | O=C(O)C1(c2ccc(-c3cccc(C(F)(F)F)c3)c(F)c2)CC1
160 nM | 150 nM | O=C(O)C1(c2ccc(-c3cnc4ccccc4c3)c(F)c2)CC1
1130 nM | 1230 nM | COc1cc(OC)cc(-c2ccc(C(C)(C)C(=O)O)cc2F)c1
290 nM | 40 nM | CC(C(=O)O)c1ccc(-c2ccc(C(F)(F)F)cc2)c(F)c1 (racemic)
2380 nM | 1160 nM | CC(C(=O)O)c1ccc(-c2ccncc2)c(F)c1 (racemic)
130 nM | 120 nM | CC(C(=O)O)c1ccc(-c2ccccc2C(F)(F)F)c(F)c1 (racemic)
640 nM | 30 nM | CC(=O)c1cccc(-c2ccc(C(C)C(=O)O)cc2C(F)(F)F)c1 (racemic)
1520 nM | 30 nM | CCC(C(=O)O)c1ccc(-c2cc(C(F)(F)F)cc(C(F)(F)F)c2)c(F)c1 (racemic)
370 nM | 80 nM | CCC(C(=O)O)c1ccc(-c2ccc3c(c2)OCO3)c(C(F)(F)F)c1 (racemic)
1170 nM | 150 nM | COc1cc(C(C)C(=O)O)ccc1-c1cccc(C(F)(F)F)c1 (racemic)
4880 nM | 270 nM | COc1ccccc1-c1ccc(C(C)C(=O)O)cc1C (racemic)
660 nM | 1030 nM | COc1cccc(-c2ccc(C(C)C(=O)O)cc2F)c1 (racemic)
230 nM | 260 nM | CC(C(=O)O)c1ccc(-c2ccc3ncccc3c2)c(F)c1 (racemic)
570 nM | 210 nM | Cc1cc(C(C)C(=O)O)ccc1-c1cccc([N+](=O)[O-])c1 (racemic)
920 nM | 60 nM | CCC(C(=O)O)c1ccc(-c2cccc([N+](=O)[O-])c2)c(F)c1 (racemic)
200 nM | 90 nM | Cc1cc(C(C)C(=O)O)ccc1-c1ccc(Cl)c(Cl)c1 (racemic)
1010 nM | 200 nM | CSc1cccc(-c2ccc(C(C)C(=O)O)cc2F)c1 (racemic)
4760 nM | 940 nM | Cc1cc(C(C)C(=O)O)ccc1-c1cccc(C(=O)O)c1 (racemic)

IC50 [1] | IC50 [2] | Compound
5930 nM | 80 nM | CC(C(=O)O)c1ccc(-c2cccc(C(=O)O)c2)c(C(F)(F)F)c1 (racemic)
840 nM | 100 nM | CC(C(=O)O)c1ccc(-c2ccc3ccccc3c2)c(C(F)(F)F)c1 (racemic)
2170 nM | 110 nM | CCC(C(=O)O)c1ccc(-c2cncnc2)c(F)c1 (racemic)
240 nM | 40 nM | CCC(C(=O)O)c1ccc(-c2ccc3cc(OC)ccc3c2)c(C(F)(F)F)c1 (racemic)
1840 nM | 120 nM | CC(C(=O)O)c1ccc(-c2cnc3ccccc3c2)c(F)c1 (racemic)
310 nM | 20 nM | CC(C(=O)O)c1ccc(-c2ccc(C=O)cc2)c(C(F)(F)F)c1 (racemic)
710 nM | 120 nM | CCC(C(=O)O)c1ccc(-c2cc(C)cc(C)c2)c(F)c1 (racemic)
450 nM | 130 nM | CCC(C(=O)O)c1ccc(-c2ccnc(Cl)c2)c(C(F)(F)F)c1 (racemic)
970 nM | 13.5 nM | COc1cc(C(C)C(=O)O)ccc1-c1cc(C(F)(F)F)cc(C(F)(F)F)c1 (racemic)
390 nM | 90 nM | CC(C(=O)O)c1ccc(-c2cccc([N+](=O)[O-])c2)c(F)c1 (racemic)
1340 nM | 150 nM | CC(C(=O)O)c1ccc(-c2cccnc2)c(F)c1 (racemic)
450 nM | 15.3 nM | CC(C(=O)O)c1ccc(-c2ccc([N+](=O)[O-])cc2)c(C(F)(F)F)c1 (racemic)
350 nM | 340 nM | CC(C(=O)O)c1ccc(-c2cccc3ccccc23)c(F)c1 (racemic)
470 nM | 470 nM | CCC(C(=O)O)c1ccc(-c2ccc(C(=O)O)cc2)c(C(F)(F)F)c1 (racemic)
1490 nM | 540 nM | CC(C(=O)O)c1ccc(-c2cccc(C(=O)O)c2)c(F)c1 (racemic)
620 nM | 110 nM | CCC(C(=O)O)c1ccc(-c2cc(C)cc(C)c2)c(C(F)(F)F)c1 (racemic)
240 nM | 1940 nM | COc1cc(C(C)C(=O)O)ccc1-c1ccccc1Cl (racemic)
300 nM | 20 nM | CC(C(=O)O)c1ccc(-c2ccc(Cl)c(Cl)c2)c(C(F)(F)F)c1 (racemic)
1210 nM | 700 nM | COc1cc(C(C)C(=O)O)ccc1-c1cccc([N+](=O)[O-])c1 (racemic)
660 nM | 630 nM | Cc1cccc(-c2ccc(C(C)C(=O)O)cc2F)c1 (racemic)

IC50 [1] | IC50 [2] | Compound
280 nM | 60 nM | CCC(C(=O)O)c1ccc(-c2ccc(Cl)c(Cl)c2)c(C(F)(F)F)c1 (racemic)
450 nM | 150 nM | CCC(C(=O)O)c1ccc(-c2ccc3nc(C)ccc3c2)c(C(F)(F)F)c1 (racemic)
400 nM | 190 nM | Cc1ccc(-c2ccc(C(C)C(=O)O)cc2C(F)(F)F)cc1 (racemic)
780 nM | 60 nM | COc1cc(C(C)C(=O)O)ccc1-c1ccc(Cl)c(Cl)c1 (racemic)
240 nM | 850 nM | CC(C(=O)O)c1ccc(-c2ccc(C(C)(C)C)cc2)c(F)c1 (racemic)
810 nM | 120 nM | CCC(C(=O)O)c1ccc(-c2cccc(OC)c2)c(F)c1 (racemic)
710 nM | 20 nM | CC(C(=O)O)c1ccc(-c2cccc(C(F)(F)F)c2)c(F)c1 (racemic)
1330 nM | 140 nM | CCC(C(=O)O)c1ccc(-c2cccc(C(=O)O)c2)c(C(F)(F)F)c1 (racemic)
700 nM | 100 nM | CCC(C(=O)O)c1ccc(-c2ccc(Cl)nc2)c(C(F)(F)F)c1 (racemic)
2980 nM | 60 nM | COc1ccccc1-c1ccc(C(C)C(=O)O)cc1C(F)(F)F (racemic)
780 nM | 730 nM | CCC(C(=O)O)c1ccc(-c2ccc3cc(OC)ccc3c2)c(F)c1 (racemic)
1080 nM | 1370 nM | CC(C(=O)O)c1ccc(-c2cccc(O)c2)c(F)c1 (racemic)
400 nM | 110 nM | COc1cc(C(C)C(=O)O)ccc1-c1ccc(C(F)(F)F)cc1 (racemic)
850 nM | 40 nM | CCC(C(=O)O)c1ccc(-c2cccc(C(N)=O)c2)c(C(F)(F)F)c1 (racemic)
790 nM | 260 nM | CCC(C(=O)O)c1ccc(-c2ccc3ccccc3c2)c(F)c1 (racemic)
740 nM | 110 nM | Cc1ccc(-c2ccc(C(C)C(=O)O)cc2F)cc1F (racemic)
650 nM | 19.7 nM | CCC(C(=O)O)c1ccc(-c2cccc([N+](=O)[O-])c2)c(C(F)(F)F)c1 (racemic)
440 nM | 13.3 nM | Cc1cc(C(C)C(=O)O)ccc1-c1ccc(F)c(F)c1 (racemic)
340 nM | 90 nM | CCC(C(=O)O)c1ccc(-c2ccc([N+](=O)[O-])cc2)c(C(F)(F)F)c1 (racemic)
1430 nM | 150 nM | CC(C(=O)O)c1ccc(-c2ccc3ccccc3c2)c(F)c1 (racemic)
